Assay results from article PMC7181660, “A novel specific PERK activator reduces toxicity and extends survival in Huntington's disease models” (Scientific Reports, 2020).

How the values were obtained:
STHdh^Q111/111 cells = assay: Toxicity assay: rescue from tunicamycin (ER stress)-induced apoptosis, FACS with propidium iodide (sub-G0/G1); format: cell-based, murine
Method: (§1) STHdh^Q111/111 cells (used before[13]) or PERK+/+ or PERK−/− MEFs (kindly provided by David Ron, Univ. Cambridge) were incubated with Tun (10 μg/ml) for 48 h, which results in ER stress-induced cell death. Cells under the same conditions were incubated for the same times, together with Tun, with increasing concentrations of the different PERK modulators (0–120 μM) and the percent of apoptotic cells was measured by FACS cell cycle progression using propidium iodide (PI), considering the fraction beneath G0/G1. The relative apoptosis rate was calculated to be able to compare between compounds and experiments, where for each concentration curve the percent of apoptotic cells was considered 100 at concentration 0 of the PERK modulator, with only Tun. The graphs show the average relative apoptosis rate of at least 3 independent experiments for each compound.
(§2) Cells were washed with PBS and fixed with cold methanol. Before FACS analysis cells were washed with PBS, followed by addition of propidium iodide (PI) solution (10 μg/ml) and analysis by flow cytometry. Cells in sub-G0/G1 were counted as apoptotic/ dead.

GADD34 mRNA = GADD34 mRNA by qPCR in STHdh^Q7/7 and STHdh^Q111/111 cells; format: cell-based, murine; settings: both cell types, qPCR vs GAPDH
Method: Total cell RNA was extracted with TRIzol reagent (Invitrogen) according to the manufacturer's instructions. Reverse transcription (RT) was performed with QuantaBio qScript cDNA synthesis kit. Real-time qPCR was carried out using a CFX Connect Real-Time PCR Detection System (BioRad) and the amplifications were done using the SYBR Green PCR Master Mix (pcrbio). Reactions were run in triplicates in three independent experiments. Housekeeping gene GAPDH was used as an internal control to normalize the variability of expression levels.

PERK−/− MEF cells = assay: Rescue from tunicamycin-induced apoptosis in PERK−/− MEFs; format: cell-based; settings: Tun
Method: as §1, §2

R6/2 HD mouse model [1] = assay: Ultrasonic vocalizations; format: in vivo, mice; settings: R6/2 TG males
Method: Ultrasonic vocalizations were recorded on males during the first 5 minutes of female exposure, 12 weeks after birth. Vocal emissions were monitored by an UltraSoundGate Condenser Microphone (CM 16; Avisoft Bioacoustics, Berlin, Germany) placed 16 cm above the floor of each male's cage. […]. […] Spectrograms were produced at 586 Hz of frequency resolution and 0.427 ms of time resolution. Figure plotted by MATLAB code.

R6/2 HD mouse model [2] = assay: Rotarod test; format: in vivo, mice; settings: 1 mg/kg subcutaneous 28 days
Method: Motor activity was assessed by the rotarod test (San Diego Instruments, CA, USA) (0–25 RPM). Relative slow acceleration was used to discriminate small differences between groups particularly at advanced stages of the disease. All mice were trained together before any experimental procedure was performed to set a common baseline. They were required to stay at least 2 minutes without falling in order to participate in the study. R6/2 mice and control littermates were tested every week after pump transplantation. Each test consisted of 3 consecutive measurements of 5 minutes with inter-trial recess of 5 minutes. The latency to fall was recorded and the best performance of the three trials was considered for the analysis.

panel of 391 kinases [3] = target: panel of 391 kinases (Homo sapiens, UniProt Q8TDX7); assay: biochemical; format: biochemical; settings: NEK7, MK-28 1 µM, ATP 1 µM
panel of 391 kinases [4] = target: panel of 391 kinases (Homo sapiens, UniProt P46734); assay: biochemical; format: biochemical; settings: MEK3, MK-28 1 µM, ATP 1 µM
panel of 391 kinases [5] = target: panel of 391 kinases (Homo sapiens, UniProt O95382); assay: biochemical; format: biochemical; settings: MEKK6, MK-28 1 µM, ATP 1 µM
panel of 391 kinases [6] = target: panel of 391 kinases (Homo sapiens, UniProt P53671); assay: biochemical; format: biochemical; settings: LIMK2, MK-28 1 µM, ATP 1 µM
panel of 391 kinases [7] = target: panel of 391 kinases (Homo sapiens, UniProt Q13555); assay: biochemical; format: biochemical; settings: CAMK2g, MK-28 1 µM, ATP 1 µM
panel of 391 kinases [8] = target: panel of 391 kinases (Homo sapiens, UniProt Q02750); assay: biochemical; format: biochemical; settings: MEK1, MK-28 1 µM, ATP 1 µM
panel of 391 kinases [9] = target: panel of 391 kinases (Homo sapiens, UniProt Q12851); assay: biochemical; format: biochemical; settings: GCK/MAP4K2, MK-28 1 µM, ATP 1 µM
panel of 391 kinases [10] = target: panel of 391 kinases (Homo sapiens, UniProt Q9Y5S2); assay: biochemical; format: biochemical; settings: MRCKb/CDC42BPB, MK-28 1 µM, ATP 1 µM
panel of 391 kinases [11] = target: panel of 391 kinases (Homo sapiens, UniProt P29323); assay: biochemical; format: biochemical; settings: EPHB2, MK-28 1 µM, ATP 1 µM
panel of 391 kinases [12] = target: panel of 391 kinases (Homo sapiens, UniProt Q15375); assay: biochemical; format: biochemical; settings: EPHA7, MK-28 1 µM, ATP 1 µM
panel of 391 kinases [13] = target: panel of 391 kinases (Homo sapiens, UniProt O15264); assay: biochemical; format: biochemical; settings: P38d/MAPK13, MK-28 1 µM, ATP 1 µM
panel of 391 kinases [14] = target: panel of 391 kinases (Homo sapiens, UniProt P27361); assay: biochemical; format: biochemical; settings: ERK1, MK-28 1 µM, ATP 1 µM
panel of 391 kinases [15] = target: panel of 391 kinases (Homo sapiens, UniProt Q9P0L2); assay: biochemical; format: biochemical; settings: MARK1, MK-28 1 µM, ATP 1 µM
[16] = read-out: % Enzyme Activity (relative to DMSO controls)

CN(/N=C\c1ccc(O)c(O)c1)c1nc(-c2ccccc2)cc(-c2ccccc2)n1 [MK-28]
rescue from ER stress-induced apoptosis (STHdh^Q111/111 cells; 0–100 μM, 48 h Tun exposure (Fig. 1C)): able to rescue the cells from apoptosis | reduction of apoptosis (STHdh^Q111/111 cells; 5 μM, 48 h Tun exposure): 20% | reduction of apoptosis (STHdh^Q111/111 cells; 10 μM, Tun (Fig. 4C)): 40% | reduction of apoptosis (STHdh^Q111/111 cells; 100 μM, 48 h Tun exposure): 5 fold | IC50 ratio MK-28 vs CCT020312 in rescuing mHtt-expressing striatal neurons from apoptosis (STHdh^Q111/111 cells; Fig. 4C): ~ 3 fold | IC50 (STHdh^Q111/111 cells; Mus musculus, STHdhQ111, STHdh^Q111/111 cells treated with Tun, read-out: IC50 for inhibition of apoptosis): 6.8 µM | concentration that showed identical levels of apoptosis in STHdh^Q111/111 and STHdh^Q7/7 cells (STHdh^Q111/111 cells; Tun (Fig. 1D)): 50 µM | increase of GADD34 mRNA levels (GADD34 mRNA): ≤ 5 fold | protection from ER stress-induced cell death (PERK−/− MEF cells): failed to protect | vocalizations (R6/2 HD mouse model [1]; 12 weeks after birth): 16 syllables in 5 min | increase of vocalizations vs untreated TG (R6/2 HD mouse model [1]; p = 0.059): three-fold increase | motor performance (rotarod) of TG mice vs untreated TG (R6/2 HD mouse model [2]; R6/2 TG, week 4): significant improvements in motor performance | motor performance (rotarod) of WT animals (R6/2 HD mouse model [2]; WT mice): no compromised motor performance | % Enzyme Activity (relative to DMSO controls) (panel of 391 kinases [3]): 97.32% | remaining activity at 1 µM (panel of 391 kinases [3]; [16]): 98.3% | % Enzyme Activity (relative to DMSO controls) (panel of 391 kinases [4]): 88.71% | remaining activity at 1 µM (panel of 391 kinases [4]; [16]): 96.2% | % Enzyme Activity (relative to DMSO controls) (panel of 391 kinases [5]): 101.22% | remaining activity at 1 µM (panel of 391 kinases [5]; [16]): 108% | % Enzyme Activity (relative to DMSO controls) (panel of 391 kinases [6]): 94.92% | remaining activity at 1 µM (panel of 391 kinases [6]; [16]): 95.4% | % Enzyme Activity (relative to DMSO controls) (panel of 391 kinases [7]): 86.57% | remaining activity at 1 µM (panel of 391 kinases [7]; [16]): 87.8% | % Enzyme Activity (relative to DMSO controls) (panel of 391 kinases [8]): 99.18% | remaining activity at 1 µM (panel of 391 kinases [8]; [16]): 100% | % Enzyme Activity (relative to DMSO controls) (panel of 391 kinases [9]): 97.18% | remaining activity at 1 µM (panel of 391 kinases [9]; [16]): 97.2% | % Enzyme Activity (relative to DMSO controls) (panel of 391 kinases [10]): 100.39% | remaining activity at 1 µM (panel of 391 kinases [10]; [16]): 101% | % Enzyme Activity (relative to DMSO controls) (panel of 391 kinases [11]): 94.59% | remaining activity at 1 µM (panel of 391 kinases [11]; [16]): 95.4% | % Enzyme Activity (relative to DMSO controls) (panel of 391 kinases [12]): 96.58% | remaining activity at 1 µM (panel of 391 kinases [12]; [16]): 98.6% | % Enzyme Activity (relative to DMSO controls) (panel of 391 kinases [13]): 103.63% | remaining activity at 1 µM (panel of 391 kinases [13]; [16]): 104% | % Enzyme Activity (relative to DMSO controls) (panel of 391 kinases [14]): 99.70% | remaining activity at 1 µM (panel of 391 kinases [14]; [16]): 101% | % Enzyme Activity (relative to DMSO controls) (panel of 391 kinases [15]): 94.22% | remaining activity at 1 µM (panel of 391 kinases [15]; [16]): 94.5%
